According to US6706509B2, “Oncoprotein protein kinase” (The Regents of the University of California, priority 1993, dated 2004):

How the values were obtained:
[1] = test system: ERK2; assay: ERK2 MBP-kinase activity after anti-ERK2 immunoprecipitation, Jurkat cells; format: cell-based, human
Procedure: WCE (50 μg) of Jurkat cells treated as described above were incubated with GSTcJun(1-223)-GSH agarose beads and assayed for JNK activity using the solid-state kinase assay. The same WCE (20 μg) were immunoprecipitated with anti-ERK2 antibodies and assayed for MBP-kinase activity.
WCE (50 μg) of Jurkat cells treated as described in Panel A with various stimuli alone or their combinations were incubated with GSTcJun(1-223)-GSH agarose beads and assayed for JNK activity using solid-state kinase assay. The same samples (20 μg) were also assayed for MBP-kinase activity as described in FIG. 16B.

[2] = test system: c-jun; assay: c-Jun phosphorylation in 32P-labelled Jurkat cells (SDS-PAGE, tryptic phosphopeptide mapping); format: cell-based, human
Procedure: Jurkat cells were grown in RPMI with 10% fetal calf serum (FCS), 1 mM […], 100 μ/ml penicillin (pen), 100 μg/ml streptomycin (strep) and 250 ng/ml amphotericin (complete medium). HeLa S3, CV-1 and FR3T3 cells were grown in DMEM supplemented with 10% FCS, 100 μ/ml pen, 100 μg/ml strep. All cells were cultured at 37° C. with 5% CO2. Mouse thymocytes were prepared from 8 week old Balb/C mice by gradient centrifugation on lymphocyte separation medium (Pharmacia). The lymphocytes were cultured for 5 hours at 37° C. in RPMI+10% FCS, prior to stimulation. Jurkat cells were labelled for 90 minutes with 0.5 mCi/ml ^32P-orthophosphate (ICN Radiochemicals) in medium lacking sodium phosphate. Labelled cells were treated with TPA (Sigma) and A23187 (Calbiochem) 1 μg/ml as indicated. When used, cyclosporin A (CsA) (Sandoz) 100 ng/ml in ethanol was added 10 minutes prior to cell stimulation. Following stimulation, the labelled cells were washed twice with ice-cold PBS then lysed with RIPA buffer (10 mM Tris pH 7.5, 150 mM NaCl, 2 mM EDTA, 1% Triton-X 100, 1% DOC, 0.1% SDS) supplemented with phosphatase inhibitors (20 mM β-glycerophosphate, 10 mM p-nitro-phenylphosphate, 1 mM Na3 VO4), and protease inhibitors (10 μg/ml leupeptin, aprotonin, pepstatin and 1 mM phenylmethyl sulfonylfluoride). c-Jun was immunoprecipitated as described (Binetruy, et al., supra., 1992) and analyzed by SDS-PAGE, followed by peptide mapping (Boyle, et al., Cell, 64:573-584, 1991; Lin, et al. Cell, 70:777-789, 1992). Ha-Ras was immunoprecipitated with Y13-259. Ha-Ras bound nucleotides were extracted and analyzed as described by Satoh, et al., (Proc. Natl. Acad. Sci., USA, 15:5993-5997, 1990).
Induction of c-Jun transcription and optimal stimulation of AP-1 correlate with changes in c-jun phosphorylation (Devary, et al., Cell, 71:1081-1091, 1992). The effect of TPA and A23187 on c-Jun phosphorylation in Jurkat cells was examined. To elevate c-Jun expression, Jurkat cells were transfected with a c-Jun expression vector. The cells were labelled with ^32P and c-Jun was immunoprecipitated from cells subjected to various stimuli and analyzed by SDS-PAGE (FIG. 12A). Jurkat cells (10^6 cells per lane) were transfected with 0.5 μg of a SRα-cJun expression vector and 24 hours later were labeled for 3 hours with ^32P-orthophosphate (1 mCi/ml). After 15 minutes, treatment with 50 ng/ml TPA (T), 1 μg/ml A23187 (A) and 100 ng/ml CsA, either alone or in combination, as indicated, the cells were lysed in RIPA buffer and c-Jun was isolated by immunoprecipitation and analyzed by SDS-PAGE. The c-Jun bands are indicated.
c-Jun phosphorylation was further analyzed by two-dimensional phosphopeptide mapping (FIG. 12C). This analysis included all the isoforms of c-Jun. All of the c-Jun specific protein bands shown in FIG. 12A, isolated from equal numbers of cells, were excised from the gel and subjected to tryptic phosphopeptide mapping. Shown is a typical result (this experiment was repeated at least three times). N-nonstimulated cells; T-cells treated with 50 ng/ml TPA; T/A: cells treated with 50 ng/ml TPA and 1 μg/ml A23187; T/A+CsA: cells treated with T/A and 100 ng/ml CsA. a,b,c,x and y correspond to the various tryptic phosphopeptides of c-Jun, previously described by Boyle, et al., (Cell, 64:573-584, 1991) and Smeal, et al., (Nature, 354:494-496, 1991). T1 and T2 correspond to the minor phosphorylation sites; Thr91, 93 and 95 (Hibi, et al., Genes & Dev., 7:000, 1993).

cyclosporin A [CsA]
ERK2 activation by anti-CD3, effect of CsA ([1]; CsA 100 ng/ml): nor was it inhibited | N-terminal c-Jun phosphorylation, CsA added to TPA+A23187 ([2]; CsA 100 ng/ml): prevented the enhancement of N-terminal phosphorylation | phosphorylated c-Jun migration, CsA added to TPA+A23187 ([2]; CsA 100 ng/ml, 15 minutes): reduced the Ca^++ effect

CCCCCCCCCCCCCC(=O)O[C@@H]1[C@@H](C)[C@@]2(O)[C@@H](C=C(CO)C[C@]3(O)C(=O)C(C)=C[C@@H]23)[C@H]2C(C)(C)[C@]12OC(C)=O [TPA]
ERK2 activation, suboptimal dose of TPA by itself [1]: partial activation of ERK2 | phosphorylated c-Jun migration on SDS-PAGE, agent alone ([2]; Jurkat transfected with c-Jun vector, TPA 50 ng/ml, 15 minutes): induced the appearance of slower migrating bands | phosphorylation of N-terminal sites Ser63 and Ser73 of c-Jun (phosphopeptide map), agent alone ([2]; Jurkat, TPA 50 ng/ml): increased phosphorylation of the N-terminal sites

CNc1ccc2oc(C[C@H]3O[C@@]4(CC[C@H]3C)O[C@H]([C@H](C)C(=O)c3ccc[nH]3)[C@H](C)C[C@H]4C)nc2c1C(=O)O [A23187]
N-terminal c-Jun phosphorylation, costimulation with TPA ([2]; A23187 1 μg/ml plus TPA 50 ng/ml): strongly enhanced | phosphorylated c-Jun migration, costimulation with TPA ([2]; A23187 1 μg/ml plus TPA, 15 minutes): enhanced this effect
